Eight compounds from patent publication US9296693B2, “Acyl piperidine inhibitors of soluble epoxide hydrolase” (The Regents of the University of California, priority 2010, dated 2016) can be followed below.

For orientation: IC50 means the concentration that gives 50% inhibition. The term log P denotes the decadic logarithm of the partition coefficient of the neutral form, usually between octanol and water. A higher log P goes with higher lipophilicity. A word on the AUC: it is the area under the concentration-time curve, a measure of exposure. A high value points to more exposure. Broadly, the Cmax is the peak of the concentration-time curve. One may read the Tmax as the time from dosing to the highest level. What is called half-life is the time in which the quantity being followed falls by half.

Each structure is given as a SMILES string. Several values for one entry are separate records, joined by “and”; a condition that tells them apart may be missing. Equal entries are not always repeated. Bounds are passed on as bounds.

The nature of series [1]: Log P determination by HPLC method (OECD guideline 117). Format: physicochemical. Conditions: octanol/water; read-out: log P (±0.5).
Description: Log P and purity analyses were performed using a Hewlett Packard 1100 HPLC equipped with a diode array detector. A Phenomenex Luna 150 mm×4.6 mm, 5 μm, C-18 column was used for all HPLC analyses.
For another series, the target named is murine sEH (Mus musculus (Mouse), UniProt P34914). As to the kind of experiment: fluorescent based IC50 assay (CMNPC substrate), recombinant murine sEH. The format is biochemical. The following applies: homogenous recombinant murine sEH 1 nM, CMNPC 5 μM, pH 7.0, 30° C., average of three replicates.
Chain of murine sEH (P34914 whole entry): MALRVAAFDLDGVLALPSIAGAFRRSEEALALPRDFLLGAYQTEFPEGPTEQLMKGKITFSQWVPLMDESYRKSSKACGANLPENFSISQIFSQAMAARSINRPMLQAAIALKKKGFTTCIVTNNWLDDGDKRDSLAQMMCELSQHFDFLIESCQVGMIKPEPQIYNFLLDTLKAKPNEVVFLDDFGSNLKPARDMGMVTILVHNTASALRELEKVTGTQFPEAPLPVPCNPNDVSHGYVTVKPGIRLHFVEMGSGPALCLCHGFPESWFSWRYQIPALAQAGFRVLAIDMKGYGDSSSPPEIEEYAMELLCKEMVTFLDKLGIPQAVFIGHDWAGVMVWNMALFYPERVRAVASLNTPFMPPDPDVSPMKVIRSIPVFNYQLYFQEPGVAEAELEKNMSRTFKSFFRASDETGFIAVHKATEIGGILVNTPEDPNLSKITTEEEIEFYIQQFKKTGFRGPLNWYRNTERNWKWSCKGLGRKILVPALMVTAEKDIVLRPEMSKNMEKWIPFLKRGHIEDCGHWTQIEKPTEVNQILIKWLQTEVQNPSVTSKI
The next series has as its target Human sEH (Homo sapiens (Human), UniProt P34913). As to the kind of experiment: fluorescent based IC50 assay (CMNPC substrate), recombinant human sEH.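 Note: enzyme preincubated with inhibitor for 5 min before adding substrate, in 25 mM Bis-Tris/HCl buffer supplemented with 0.1 mg/mL BSA.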 The following applies: read-out: IC50 (nM) Human; homogenous recombinant human sEH 1 nM, CMNPC 5 μM, pH 7.0, 30° C., average of three replicates.
Series [2] is described as follows: log P by shake flask method (OECD guideline 107). The format is physicochemical.
A short description of series [3]: Pharmacokinetic screening of selected haloalkyl-phenyl ureas, blood profiles. Format: in vivo. The following applies: whole blood.

Chain of Human sEH (P34913 whole entry): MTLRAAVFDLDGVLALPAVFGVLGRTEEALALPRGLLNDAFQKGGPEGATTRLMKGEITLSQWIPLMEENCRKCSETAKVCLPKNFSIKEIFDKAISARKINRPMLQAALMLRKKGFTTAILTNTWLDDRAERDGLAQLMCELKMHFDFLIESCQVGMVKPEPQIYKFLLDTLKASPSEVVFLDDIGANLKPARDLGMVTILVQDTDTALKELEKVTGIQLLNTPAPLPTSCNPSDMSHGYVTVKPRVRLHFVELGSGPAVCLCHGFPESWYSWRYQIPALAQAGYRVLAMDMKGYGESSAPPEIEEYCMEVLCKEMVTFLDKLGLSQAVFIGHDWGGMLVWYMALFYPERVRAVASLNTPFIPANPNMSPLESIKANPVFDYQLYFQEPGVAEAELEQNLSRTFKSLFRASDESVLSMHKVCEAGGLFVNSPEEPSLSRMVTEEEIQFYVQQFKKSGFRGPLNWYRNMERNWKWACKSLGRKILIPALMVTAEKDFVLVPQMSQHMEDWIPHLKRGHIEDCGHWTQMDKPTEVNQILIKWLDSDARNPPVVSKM

With `CCC(=O)N1CCC(NC(=O)Nc2cccnc2)CC1` [Compound 9, 1-(1-Propionylpiperidin-4-yl)-3-(pyridin-3-yl)urea], the chromatographic logP in series [1] was less than 0. Moreover, the IC50 on murine sEH is > 5000 nM and 12000 nM; on Human sEH it was 3800 nM.
In the case of `CCC(=O)N1CCC(NC(=O)Nc2ccc(F)cc2)CC1` [Compound 24, 1-(4-Fluorophenyl)-3-(1-propionylpiperidin-4-yl)urea], the IC50 came out at 110 nM on murine sEH and 79 nM at Human sEH. Moreover, the “log P” value in series [2] is 1.9.
For `O=C(Nc1ccc(OC(F)(F)F)cc1)NC1CCN(C(=O)c2cc(O)c(O)c(O)c2)CC1` [Compound 54, 1-(4-(Trifluoromethoxy)phenyl)-3-(1-(3,4,5-trihydroxybenzoyl)piperidin-4-yl)urea], the IC50 was found to be 2.7 nM on murine sEH and 0.5 nM on Human sEH. In series [2], the “log P” value is recorded as 2.3.
For `O=C(Nc1ccc(OC(F)(F)F)cc1)NC1CCN(S(=O)(=O)c2ccccc2)CC1` [Compound 57, 1-(1-(Phenylsulfonyl)piperidin-4-yl)-3-(4-(trifluoromethoxy)phenyl)urea], the IC50 at murine sEH was 0.4 nM; at Human sEH, 1.8 nM.
For the compound `O=C(Nc1ccc(C(F)(F)F)cc1)NC1CCN(C(=O)C2CC2)CC1` [Compound 61, 1-(1-cyclopropanecarbonylpiperidin-4-yl)-3-(4-(trifluoromethyl)phenyl)urea], in series [3], the AUC came out at 170 µM·h, the Cmax came to 10.2 µM, the Tmax amounted to 4 h and the half-life was 10.6 h.
For `CCC(C)C(=O)N1CCC(NC(=O)Nc2ccc(C(F)(F)F)cc2)CC1` (stereo not drawn) [Compound 64, 1-(1-(2-methylbutyryl)piperidin-4-yl)-3-(4-(trifluoromethyl)phenyl)urea] the same measures were 3.9 µM·h, 4 µM, 4 h and 2.5 h.
For the compound `CCCCS(=O)(=O)N1CCC(NC(=O)Nc2ccc(C(F)(F)F)cc2)CC1` [Compound 69, 1-(1-(butylsulfonyl)piperidin-4-yl)-3-(4-(trifluoromethyl)phenyl)urea], in series [3], the AUC turned out to be 15.5 µM·h, the highest level (Cmax) was 1.7 µM, the Tmax stood at 1 h and the half-life is 4.5 h.
On the same counts, the results for `O=C(Nc1ccc(C(F)(F)F)cc1)NC1CCN(S(=O)(=O)C2CC2)CC1` [Compound 70, 1-(1-(cyclopropylsulfonyl)piperidin-4-yl)-3-(4-(trifluoromethyl)phenyl)urea] are 167 µM·h, 10.9 µM, 4 h and 11.9 h.
